# Entries after “also recorded” stand apart in the source; their conditions may differ.
# What was measured:
# KG-1 AML cell line = assay: Cytokine production by KG-1 AML cell line after TNF-alpha; type: cell-based, human; details: 2.5 μg/ml pre-treatment, then 1 ng/ml TNF-alpha, 18 h
# Experimental: Media was harvested 18 h later for cytokine analyses.
# AML tumor cell lines = assay: IL-8 / MCP-1 production by AML tumor cell lines after TNF-α (ELISA); type: cell-based, human; details: 10 μg/ml SGN-33 before 1 ng/ml TNF-α; 18 h; p<0.05, p<0.01 (FIG. 27C)
# Experimental: (§1) Target AML tumor cells (KG-1 HEL9217, and TF1α) were labeled with Na^51CrO4 and mixed with enriched CD16^+ effector (NK) cells, prepared using PBMCs from normal donors. The effector to target cell ratio was 10:1. […] Macrophages were labeled with CD11b−FITC or CD14-FITC antibody. Flow cytometric analyses of dual labeled (PKH67+CD11b+ or PKH67+CD14+) cells was used to determine specific uptake (phagocytosis). […] Media were collected 18 h later and analyzed by ELISA for IL-8 or MCP-1.
# [1] = tested on: primary human macrophages; assay: Macrophage migration in response to chemoattractants (CytoSelect Cell Migration Assay); type: cell-based
# Experimental: (§2) The migration of macrophages in response to challenge with plating media containing 10% human serum, 20% conditioned tumor cell media, or 50 ng/ml TGF-β, VEGF, TNF-α, or IFN-γ was evaluated using the CytoSelect Cell Migration Assay (Cell Biolabs, San Diego, Calif.). […] The study was stopped 18 hours later and migration was evaluated after dissociation of the cells from the membrane followed by detection with Cyquant GR dye.
# as §2, with “serum or” for “serum,”, “media” for “media, or 50 ng/ml TGF-β, VEGF, TNF-α, or IFN-γ”, “studies were” for “study was”, “h” for “hours”
# [2] = tested on: advanced myeloid malignancies; assay: Phase I single-arm dose escalation trial; type: in vivo, human
# Experimental: Entry criteria included CD33 expression on >50% of the marrow blasts to ensure that adequate target antigen was present. […] Clinical response was assessed by bone marrow morphology and hematologic improvement. […] Among AML patients, 6 had antecedent hematologic disorder. Dosing cohorts included 1.5 (6), 2.5 (4), 4 (4), and 8 mg/kg (17).
# [3] = tested on: AML tumor cells (KG-1 HEL9217, and TF1α); assay: ADCC, 51Cr release assay with NK effector cells; type: cell-based, human; details: MDR-positive and MDR-negative AML cells; effector to target ratio 10:1 (FIG. 27A)
# Experimental: as §1
# Viable NK cells were pre-treated for 2 to 3 h with lenalidomide or thalidomide (as described in FIG. 23) prior to addition to target cells.
# CD33 = CD33 (Homo sapiens, UniProt P20138); assay: CD33 tyrosine phosphorylation (CD33 immunoprecipitation, anti-phosphotyrosine Western blot); type: cell-based; design: endogenous in cells; host or cells: HL-60, U937; primary human CD14+ monocytes and PBMC-derived macrophages
# CD33, sequence (P20138 18-364): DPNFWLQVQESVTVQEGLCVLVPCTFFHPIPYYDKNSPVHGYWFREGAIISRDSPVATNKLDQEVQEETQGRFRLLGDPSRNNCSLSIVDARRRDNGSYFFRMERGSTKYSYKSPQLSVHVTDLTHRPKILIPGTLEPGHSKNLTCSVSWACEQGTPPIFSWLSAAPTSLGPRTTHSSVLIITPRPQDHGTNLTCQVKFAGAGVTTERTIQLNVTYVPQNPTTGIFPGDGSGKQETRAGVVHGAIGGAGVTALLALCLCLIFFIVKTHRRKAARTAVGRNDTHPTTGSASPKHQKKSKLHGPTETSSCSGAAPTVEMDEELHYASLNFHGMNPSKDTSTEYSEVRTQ
# Experimental: CD33-positive cell lines were treated with anti-CD33 antibodies (lintuzumab and certain commercially available antibodies). Cell extracts were prepared and CD33 was immunoprecipitated using an anti-CD33 antibody (MY9 clone; Beckman Coulter, Calif.). Western blotting was performed with an anti-phosphotyrosine antibody (4G10; Upstate Biotechnologies, Inc., Lake Placid, N.Y.).
# Deglycosylation was confirmed by CE-SDS. […] Cell lysates were prepared and CD33 immunoprecipitated using an anti-CD33 rabbit polyclonal antibody (Santa Cruz Biotechnology, Santa Cruz, Calif.) prior to SDS PAGE gel electrophoresis. Western blot analyses of these samples were performed using the 4G10 phosphotyrosine antibody (Upstate Biotechnology, Temucula, Calif.), anti-CD33 antibody (NovoCastra, Norwell, Mass.), and anti-SHP-1 antibody (Calbiochem, San Diego, Calif.). Control lysate for SHP-1 was prepared from a B cell lymphoma cell line.
# [4] = tested on: primary human CD14+ monocytes; assay: Cell viability (CelltiterGlo) of primary human CD14+ monocytes; type: cell-based; details: 48 hours of exposure to increasing concentrations (FIG. 13)
# Experimental: Macrophages were harvested, counted, and cultured in 96-well plates at 35,000 cells per well. G-CSF-mobilized CD14^+ monocytes (Cambrex) were cultured in 96-well plates at 100,000 cells per well (adherent cells) in sterile polypropylene dishes (non-adherent cells).
# HL-60 cells = assay: HL-60 disseminated AML model in mice; type: in vivo
# Experimental: Mice were implanted with an AML cell line, HL-60, as follows: 5 million HL-60 cells were injected intravenously. The mice were treated with lintuzumab (10 mg/kg, q4dx4, ip), cytarabine (1 mg/kg, 5 mg/kg or 25 mg/kg, q1dx10, ip; or 50 mg/kg or 100 mg/kg, q2dx5, ip) or lintuzumab with cytarabine (dosed as described previously). Treatment began on day one. Referring to FIG. 22, the control mice or mice treated with placebo (0.9% saline) were removed from the study by day 80, due to tumor progression.
# To confirm the data of the in vitro study, mice were implanted with an AML cell line, HL-60, as follows: 5 million HL-60 cells were injected intravenously. […] Treatment began on day one. Referring to FIG. 24, the control mice were removed from the study by about day 60 due to tumor progression. Mice treated with lenalidomide were removed from study by about day 90 for similar reasons.
# The MDR-negative HL60 cell line and the MDR-positive HEL9217 and TF1-α cell lines were used. […] Disease symptoms typically developed between about 35 and about 80 days, and included hind limb paralysis, scruffy coat, weight loss, palpable tumors, and/or tumor masses in bone, peritoneal cavity, or soft tissues. Human CD33+ tumor cells were detected in the blood, bone marrow, and lymph nodes of the majority of the mice by flow cytometry (FIG. 25). Solid tumors associated with bone or soft tissues were found in 20 to 60% of the mice.
substance,measurement,setting,value
"SGN-33: anti-CD33 antibody, a humanized version of mouse monoclonal antibody M195","production of IL-8, IP-10, MIP1β, RANTES and MCP-1",KG-1 AML cell line,"reduced the production of IL-8, IP-10, MIP1β, RANTES, and MCP-1"
same,production of cytokines (IL-8 or MCP-1),AML tumor cell lines,reduced cytokine production; also recorded: significantly reduced the production of cytokines
same,macrophage migration,"[1]; 10% human serum or 20% conditioned media from RPMI 8226 cells, p<0.05 (FIG. 21)",significantly reduced the migration
same,blocking of migration of neuraminidase-treated macrophages,"[1]; SGN-33 added to neuraminidase-treated macrophages, serum or tumor cell conditioned media (FIG. 14C)",greater blocking effect
same,Grade 4 adverse events considered related to antibody,[2]; 31 patients,none
same,patients achieving CR,[2]; among 18 patients with AML,4
same,patients achieving CR with incomplete platelet recovery,[2]; among 18 patients with AML,1
same,accumulation,[2]; repeat dosing,documented with repeat dosing
same,dose limiting toxicity,"[2]; weekly iv 1.5 to 8 mg/kg for 5 weeks, 31 patients",has not been observed
same,ADCC activity (cell lysis),[3],mediated antibody-dependent cell cytotoxity; also recorded: mediate cell lysis of MDR− and MDR+AML tumor cell lines
same,phosphorylation of CD33,CD33; HL-60 AML cells (FIG. 16),induced phosphorylation of CD33
same,CD33 tyrosine phosphorylation,"CD33; HL-60 and U937 cells, soluble or cross-linked antibody (FIG. 2)",stimulated CD33 tyrosine phosphorylation
same,CD33 tyrosine phosphorylation,"CD33; HL-60 cells, soluble and cross-linked antibody (FIG. 1)",stimulated CD33 tyrosine phosphorylation
same,cell viability of monocytes,[4],not due to an adverse effect; also recorded: does not affect the viability
same,survival,"HL-60 cells; HL60 model, SCID mice, q4dx4, p<0.005 (FIG. 26)",> 100 days
same,increase of survival,"HL-60 cells; MDR-negative HL60 model, 3 to 30 mg/kg, p<0.0001",> 100 days
same,survival rate,HL-60 cells; SGN-33 30 mg/kg q4dx5 ip (FIG. 24),~85%
same,survival rate,HL-60 cells; SGN-33 3 or 10 mg/kg q4dx5 ip (FIG. 24),~50%
